Experiments:
[1] = test system: Zea mays (variety DKC 43-48); assay: 2012 Corn Trial—St. Cloud, Minn.; assay type: in vivo; conditions: in furrow, compared to untreated controls
Procedure: A corn trial utilizing a composition of the instant disclosure was performed in St. Cloud, Minn., in 2012. In this example, the composition comprised ortho-ortho EDDHA as the exemplary ligand.
In this example, Zea mays (variety DKC 43-48) seeds were planted on May 15, 2012. Soil moisture was normal and the seed bed was compacted. The tillage type was conventional till. The treated crop area for the instant example was 300 square feet (ft^2). The study design was randomized complete block (RCB) with four replications.
Corn plants were harvested on Oct. 10, 2012. Thereafter, the yield of corn plants administered the composition comprising ortho-ortho EDDHA was compared to the yield of control corn plants that were untreated.

[2] = test system: corn variety Pioneer 8640 Roundup Ready; assay: 2013 Corn Trial—Casselton, N. Dak.; assay type: in vivo; conditions: compared to untreated controls
[3] = test system: corn variety Dekalb 45-51; assay: 2013 Corn Trial—Brookings, S. Dak.; assay type: in vivo; conditions: compared to untreated controls
Procedure: A corn trial utilizing a composition of the instant disclosure was performed near Brookings, S. Dak., in 2013. In this example, the composition comprised ortho-ortho EDDHA as the exemplary ligand.
In this example, corn variety Dekalb 45-51 was planted on May 14, 2013. Corn was planted to a population of 32,000 plants per acre, and a 30-inch row spacing was used. The soil type was Brandt silty clay loam.
Corn plants were harvested on Oct. 24, 2013. Thereafter, the yield of corn plants administered the composition comprising ortho-ortho EDDHA was compared to the yield of control corn plants that were untreated.

[4] = test system: glycine max (variety PB0954RR) soybean; assay: 2013 Soybean Trial—St. Cloud, Minn.; assay type: in vivo; conditions: compared to untreated controls
Procedure: A soybean trial utilizing a composition of the instant disclosure was performed in St. Cloud, Minn., in 2013. In this example, the composition comprised ortho-ortho EDDHA as the exemplary ligand.
In this example, glycine max (variety PB0954RR) soybean seeds were planted on Jun. 17, 2013. The tillage type was conventional till. The treated crop area for the instant example was 300 square feet (ft^2). The study design was randomized complete block (RCB) with four replications.
Soybean plants were harvested on Oct. 11, 2013. Thereafter, yield of soybean plants administered the composition comprising ortho-ortho EDDHA was compared to the yield of control soybean plants that were untreated.

corn seeds = assay: 2013 Corn Seed Trial—Brookings, S. Dak.; assay type: in vivo; conditions: corn seed treatment; compared to untreated controls
Procedure: A corn seed trial utilizing a composition of the instant disclosure was performed in Brookings, S. Dak., in 2013. In this example, the composition comprised ortho-ortho EDDHA as the exemplary ligand (i.e., “WC101”). The study design was randomized complete block (RCB) with four replications. […] [table] Plot unit sizes were approximately 10 feet by 40 feet according to the disclosed layout of FIG. 9.

corn = assay: 2014 Corn Trial—Scandia, Kans.; assay type: in vivo; conditions: starter fertilizer treatment groups; for yield response (effect in words): FIG. 1, Table 8, improvement especially for groups without micronutrients (10-34-0, 9-18-9)
Procedure: A corn trial utilizing a composition of the instant disclosure was performed near Scandia, Kans., in 2014. In this example, the composition comprised ortho-ortho EDDHA as the exemplary ligand (i.e., “WC101”).
In this example, corn was planted on May 2, 2014. Treatments were applied as starter applications at planting with an application volume of 6 gpa. Weed control was completed as needed to keep weed free with maintenance sprays.
Data collected included yield (bu/acre), test weight, moisture, preliminary soil analysis, and plant tissue and grain analysis. Grain yield was measured harvesting the two center rows with a plot combine. Total phosphorus (P) content in plant tissue was measured for the ear leaf and grain P concentration was measured after harvest with grain analysis for total P content.
Fertilizer treatment mixes were completed before application. […] Although treatment application was complicated in some instances, the rates and placement for the instant example were believed to be within acceptable parameters. Grain yield was measured harvesting the two center rows with a plot combine. Total phosphorus (P) content in plant tissue was measured for the ear leaf and grain P concentration was measured after harvest with grain analysis for total P content.

[5] = Visual observations of fertilizer treatment mixes; assay type: physicochemical; conditions: various fertilizers, for instance 9-18-9

Question: Which results are given for `O=C(O)C(NCCNC(C(=O)O)c1ccccc1O)c1ccccc1O` (stereo not shown) [ortho-ortho EDDHA]?
Answer: yield increase [1]: 8.5 bushels per acre; yield increase [2]: 4.6 bushels per acre; yield increase [3]: 8.2 bushels per acre; yield increase [4]: 5.1 bushels per acre; emergence increase (corn seeds): 3.5%; yield increase (corn seeds): 1.4 bushels per acre; yield response (effect in words) (corn; listed as WC101): improvement; yield response (effect in words) (corn; listed as ligand): statistically significant effect; plant tissue phosphorus (P) response, ear leaf (effect in words) (corn; FIG. 2, Table 8, listed as WC101): improvement; plant tissue phosphorus (P) response, ear leaf (effect in words) (corn; FIG. 2, Table 8, listed as ligand): statistically significant effect; grain P removal response (effect in words) (corn; FIG. 3, Table 8, listed as WC101): improvement; grain P removal response (effect in words) (corn; FIG. 3, Table 8, listed as ligand): statistically significant effect; compatibility with fertilizers in treatment mixes [5]: possible compatibility issues

Source: patent publication US11180423B2, “Compositions and methods for micronutrient introduction” (CHS INC., priority 2014, dated 2021)
